Measurements: patent publication US4895856A, “Derivatives of 5-pentylamino-5-oxopentanoic and 4-pentylamino-4-oxobutanoic acids with antagonistic activity towards cholecystokinin” (Rotta Research Laboratorium S.p.A., priority 1986, dated 1990)
Where two headings read alike, the source gives them in different places.

Key:
[1] = biological target: T1, cholecystokinin receptors of ox gallbladder membranes (Bos taurus, UniProt A6QLH2); experiment: Inhibition of binding of (125-I)-Bolton Hunter-CCK-8 to ox gallbladder membranes; conditions: 2 h at 25° C., pH 7.4, read-out: IC50 (displacement of 50% of the (125-I)-CCK-8 from the receptors)
T1 sequence (A6QLH2 1-427): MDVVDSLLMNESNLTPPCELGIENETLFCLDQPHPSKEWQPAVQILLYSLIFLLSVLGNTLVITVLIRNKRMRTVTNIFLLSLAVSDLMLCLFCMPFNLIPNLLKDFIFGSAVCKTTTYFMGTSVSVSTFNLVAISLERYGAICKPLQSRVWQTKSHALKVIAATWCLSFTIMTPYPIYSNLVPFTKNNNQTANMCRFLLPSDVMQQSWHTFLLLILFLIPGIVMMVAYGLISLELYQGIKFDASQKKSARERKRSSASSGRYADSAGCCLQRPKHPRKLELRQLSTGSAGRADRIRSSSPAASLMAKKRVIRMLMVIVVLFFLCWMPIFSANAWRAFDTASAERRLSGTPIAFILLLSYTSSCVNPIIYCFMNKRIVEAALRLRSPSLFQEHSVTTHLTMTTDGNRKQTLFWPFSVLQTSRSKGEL
Description: The capacity of some compounds of the invention to inhibit the binding of (125-I)-Bolton Hunter-CCK-8 to the cholecystokinin receptors of ox gallbladder membranes was evaluated by comparison with the displacement induced by cold (unmarked) CCK.
The ox gallbladder cell membranes were prepared by homogenisation with Tris buffer (pH 7.4) and centrifuging of the homogenate at 50,000 gravity for 10 minutes. The membranes were then incubated together with the radioactive tracer and the compounds under study for 2 h at 25° C.
After the supernatant liquid had been discarded, the radioactivity associated with the pellet was determined with a liquid scintillator. The specific binding was determined as the difference between the binding in the absence and in the presence of 10^-6 M CCK-8.

[2] = test system: pyloric sphincter; experiment: Antispastic activity on pyloric contraction induced by CCK in rats; format: in vivo; conditions: for % inhibition of the pyloric contraction: CCK 8 mcg/kg i.p.; for ED50: Rattus norvegicus, ip, i.p. 15 minutes before CCK 8 mcg/kg i.p., read-out: ID50 (antispastic activity on the pyloric contraction induced by CCK)
Description: A dose of 8 mcg/kg i.p. of CCK was used, which induced a sub-maximal contraction of the pylorus. The antagonistic compounds were administered (i.p.) 15 minutes before the contractant. 10 minutes after administration of the contractant, the animals were treated per os with 25 ml/kg of H2 O. 5 minutes after the administration the animals were killed, their stomachs removed and the gastric content measured by removal with a syringe.
The % antispastic activity for each dose administered was calculated from the following formula: [formula] where V1 =the volume of gastric content of the group of animals treated with the drug plus the contractant.
V2 =the volume of gastric content of the group of animals treated with the contractant only.
V3 =the volume of gastric content of the control group of animals.
Various doses of the compounds were tested so as to enable the calculation of an ID50 value, that is the dose (in mg/kg i.p.) which is able to inhibit the contractant effect of CCK by 50%.
The results obtained are given in Table 6 where the effects obtained are expressed as the ID50.

[3] = test system: gallbladder; experiment: Antispastic activity on the gallbladder in mice (egg yolk-induced emptying); format: in vivo; conditions: for % inhibition of the emptying of the gallbladder: egg yolk; for ED50: Mus musculus, ip, read-out: ID50 (antispastic activity on contraction of the gallbladder induced by egg yolk)
Description: (§1) Emptying of the gall bladder was induced by a single oral administration of 1 ml of a 30% suspension (weight/volume) of lyophylised egg yolk in a physiological solution.
(§2) As stated above once it has been absorbed egg yoke induces a release of endogenous CCK.
(§3) The antagonistic compounds were administered intraperitoneally (i.p.) 15 minutes before the contractant.
(§4) The % antispastic activity for each dose was calculated from the following formula: [formula] where P1 =the average weight of the gallbladders of the group of animals treated with the drug plus the contractant.
(§5) P2 =the average weight of the gallbladders of the group of animals treated with the contractant only.
(§6) P3 --the average weight of the gallbladders of the control group of animals.
(§7) The results obtained are given in Table 5 where the effects obtained are expressed as the ID50.

[4] = test system: pancreas; experiment: Protective activity in experimental pancreatitis induced by sodium taurocholate in rats; format: in vivo; conditions: for ED50: Rattus norvegicus, ip, taurocholate pancreatitis
Description: The method described by Aho et al. (Scandinavian J. Gastroenterology 15 (1980), 411-16) was followed.
Male rats weighing approximately 250 g were subjected to laparotomy and the pancreas exposed. 0.3 ml of a 6% solution of sodium taurocholate were injected directly into the pancreatic tissue.
The products under examination were administered intraperitoneally (i.p.) 30 minutes before the operation and 3 hours after the operation.
6 hours after the laparotomy, blood was taken from the retro-orbital plexus after anaesthesia with ether, the animals were killed and the pancreas was removed and weighed. The activity of the serum amylase was determined by the Ceska method (Clin. Chim. Acta 26 (1969), 437-444).
The compounds were tested at various doses so as to enable the calculation of an ID50 value, that is the dose (in mg/kg i.p.) which is able to inhibit the toxic effect of the sodium taurocholate by 50%, expressed both as a % inhibition of the increase in weight of the pancreas and as a % inhibition of the increase in serum amylase.

[5] = Antispastic activity on the gallbladder in mice (egg yolk-induced emptying); format: in vivo; conditions: mouse, in vivo, ip, 75 mg/kg, read-out: death of the animals treated
Description: as §1, §2, §3, §4, §5, §6, §7

[6] = i.p. 15 minutes before the contractant
[7] = read-out: ID50, inhibition of pancreas weight increase
[8] = read-out: ID50, inhibition of serum amylase increase

Molecule: CCK-8: cold (unmarked) CCK; cholecystokinin
- IC50 [1]: 0.2 nM

Molecule: CCCCCN(CCCOC)C(=O)C(CCC(=O)O)NC(=O)c1ccc2ccccc2c1 (stereo not shown) [Compound 28]
- % inhibition of the pyloric contraction ([2]; 0.03 mg/kg i.p.): 12.5%
- % inhibition of the pyloric contraction ([2]; 0.1 mg/kg i.p.): 29.2%
- % inhibition of the pyloric contraction ([2]; 0.3 mg/kg i.p.): 46.7%
- % inhibition of the pyloric contraction ([2]; 1.0 mg/kg i.p.): 73.0%
- ED50 [2]: 0.3 mg/kg
- % inhibition of the emptying of the gallbladder ([3]; 0.1 mg/kg i.p.): 16.5%
- % inhibition of the emptying of the gallbladder ([3]; 0.3 mg/kg i.p.): 36.2%
- % inhibition of the emptying of the gallbladder ([3]; 1.0 mg/kg i.p.): 58.8%
- ED50 [3, 6]: 0.62 mg/kg
- % inhibition amylase increase ([4]; 3 mg/kg i.p. + taurocholate): 45.0%
- % inhibition weight increase (pancreas) ([4]; 3 mg/kg i.p. + taurocholate): 29.2%
- % ratio pancreas weight / animal weight ([4]; 3 mg/kg i.p. + taurocholate): 0.52%
- amylase in the serum ([4]; 3 mg/kg i.p. + taurocholate): 11.0 U/ml
- % inhibition amylase increase ([4]; 10 mg/kg i.p. + taurocholate): 68.3%
- % inhibition weight increase (pancreas) ([4]; 10 mg/kg i.p. + taurocholate): 50.0%
- % ratio pancreas weight / animal weight ([4]; 10 mg/kg i.p. + taurocholate): 0.47%
- amylase in the serum ([4]; 10 mg/kg i.p. + taurocholate): 9.6 U/ml
- % inhibition amylase increase ([4]; 20 mg/kg i.p. + taurocholate): 88.3%
- % inhibition weight increase (pancreas) ([4]; 20 mg/kg i.p. + taurocholate): 66.6%
- % ratio pancreas weight / animal weight ([4]; 20 mg/kg i.p. + taurocholate): 0.43%
- amylase in the serum ([4]; 20 mg/kg i.p. + taurocholate): 8.4 U/ml
- ED50 [4, 7]: 9.2 mg/kg
- ED50 [4, 8]: 4.1 mg/kg

Molecule: COc1ccc(Cc2nccc3cc(OC)c(OC)cc23)cc1OC [PAPAVERINE, papaverine, reference compound]
- % inhibition of the emptying of the gallbladder ([3]; 25 mg/kg i.p.): 0%
- % inhibition of the emptying of the gallbladder ([3]; 50 mg/kg i.p.): 0%
- % inhibition of the emptying of the gallbladder ([3]; 75 mg/kg i.p.): 26.1%
- ID50 (antispastic activity on contraction of the gallbladder induced by egg yolk) [3, 6]: INACTIVE
- antispastic activity on the gallbladder (in words) ([3]; only at the toxic dose of 75 mg/kg): slightly active
- mortality [5]: 20%

Molecule: CCCCCN(CCCCC)C(=O)C(CCC(=O)O)NC(=O)c1ccc2ccccc2c1 (racemic) [Compound 19, D,L-4-(2-naphthoylamino)-5-(di-n-pentylamino)-5-oxopentanoicacid]
- % inhibition of the pyloric contraction ([2]; 0.01 mg/kg i.p.): 17.3%
- % inhibition of the pyloric contraction ([2]; 0.03 mg/kg i.p.): 28.7%
- % inhibition of the pyloric contraction ([2]; 0.1 mg/kg i.p.): 70.7%
- % inhibition of the pyloric contraction ([2]; 0.3 mg/kg i.p.): 95.5%
- ED50 [2]: 0.05 mg/kg
- % inhibition of the emptying of the gallbladder ([3]; 0.03 mg/kg i.p.): 12.1%
- % inhibition of the emptying of the gallbladder ([3]; 0.1 mg/kg i.p.): 41.2%
- contraction of the gallbladder induced by the egg yolk (in words) ([3]; 0.3 mg/kg): almost completely blocks the contraction
- % inhibition of the emptying of the gallbladder ([3]; 0.3 mg/kg i.p.): 83.7%
- ED50 [3, 6]: 0.11 mg/kg
- % inhibition amylase increase ([4]; 1 mg/kg i.p. + taurocholate): 45.3%
- % inhibition weight increase (pancreas) ([4]; 1 mg/kg i.p. + taurocholate): 33.3%
- % ratio pancreas weight / animal weight ([4]; 1 mg/kg i.p. + taurocholate): 0.49%
- amylase in the serum ([4]; 1 mg/kg i.p. + taurocholate): 12.7 U/ml
- % inhibition amylase increase ([4]; 3 mg/kg i.p. + taurocholate): 76.7%
- % inhibition weight increase (pancreas) ([4]; 3 mg/kg i.p. + taurocholate): 73.3%
- % ratio pancreas weight / animal weight ([4]; 3 mg/kg i.p. + taurocholate): 0.43%
- amylase in the serum ([4]; 3 mg/kg i.p. + taurocholate): 10.0 U/ml
- % inhibition amylase increase ([4]; 10 mg/kg i.p. + taurocholate): 90.7%
- % inhibition weight increase (pancreas) ([4]; 10 mg/kg i.p. + taurocholate): 93.3%
- % ratio pancreas weight / animal weight ([4]; 10 mg/kg i.p. + taurocholate): 0.40%
- amylase in the serum ([4]; 10 mg/kg i.p. + taurocholate): 8.8 U/ml
- ED50 [4, 7]: 1.7 mg/kg
- ED50 [4, 8]: 1.1 mg/kg
- ED50 ([4]; read-out: dose inhibiting the weight increase of the pancreas and the serum amylase increase by 50%): ~1.5 mg/kg

Molecule: CCCCCN(CCCCC)C(=O)C(CC(=O)O)NC(=O)c1ccc2ccccc2c1 (stereo not shown) [Compound 26]
- % inhibition of the pyloric contraction ([2]; 0.03 mg/kg i.p.): 24.8%
- % inhibition of the pyloric contraction ([2]; 0.1 mg/kg i.p.): 50.0%
- % inhibition of the pyloric contraction ([2]; 0.3 mg/kg i.p.): 57.7%
- % inhibition of the pyloric contraction ([2]; 1.0 mg/kg i.p.): 78.9%
- ED50 [2]: 0.14 mg/kg
- % inhibition of the emptying of the gallbladder ([3]; 0.1 mg/kg i.p.): 17.0%
- % inhibition of the emptying of the gallbladder ([3]; 0.3 mg/kg i.p.): 30.8%
- % inhibition of the emptying of the gallbladder ([3]; 1.0 mg/kg i.p.): 66.7%
- ED50 [3, 6]: 0.53 mg/kg
